In ChEMBL document CHEMBL3046742, “Isolation and anxiolytic activity of 3,4-bis(3,4-dimethoxyphenyl)furan-2,5-dione from the ethanolic extract of heart wood of Cedrus deodara” (2012) one finds Time and Activity data, which are given here for 2 compounds.

The subject of assay [1] is Mus musculus. Kind of assay: Anxiolytic activity in Mus musculus Swiss albino (mouse) assessed as increase in time spent in open arms at 2 mg/kg, po administered 1 hr prior to testing measured for 5 min by plus-maze test (reference value: 23 +/- 1.63 secs). It counts as functional.
Assay [2] has as its system Mus musculus. The assay is described as follows: Anxiolytic activity in Mus musculus Swiss albino (mouse) assessed as time spent in neutral zone at 2 mg/kg, po administered 1 hr prior to testing measured for 5 min by plus-maze test (reference value: 70 +/- 5.63 secs). The class given is functional.
Assay [3] deals with Mus musculus. The assay is described as follows: Anxiolytic activity in Mus musculus Swiss albino (mouse) assessed as increase in ambulation at 2 mg/kg, po administered 45 min prior to testing measured for 5 min by open-field test relative to control. The class given is functional, organism-based. Set-up: dose 2 mg/kg.
Assay [4] deals with Mus musculus. Kind of assay: Anxiolytic activity in Mus musculus Swiss albino (mouse) assessed as increase in time spent in light zone at 2 mg/kg, po administered 1 hr prior to testing measured for 5 min by light-dark test (reference value: 64 +/- 4.02 secs). The class given is functional.
Assay [5] has as its system Mus musculus. The assay is described as follows: Anxiolytic activity in Mus musculus Swiss albino (mouse) assessed as time spent in neutral zone at 30 mg/kg, po administered 1 hr prior to testing measured for 5 min by plus-maze test (reference value: 70 +/- 5.63 secs). It counts as functional.
For assay [6], the system named is Mus musculus. The assay is described as follows: Anxiolytic activity in Mus musculus Swiss albino (mouse) assessed as increase in time spent in light zone at 10 mg/kg, po administered 1 hr prior to testing measured for 5 min by light-dark test (reference value: 64 +/- 4.02 secs). The class given is functional.
Assay [7] has as its system Mus musculus. Kind of assay: Anxiolytic activity in Mus musculus Swiss albino (mouse) assessed as increase in time spent in open arms at 30 mg/kg, po administered 1 hr prior to testing measured for 5 min by plus-maze test (reference value: 23 +/- 1.63 secs). The class given is functional.
Assay [8] concerns Mus musculus. The assay is described as follows: Anxiolytic activity in Mus musculus Swiss albino (mouse) assessed as decrease in immobility duration at 2 mg/kg, po administered 1 hr prior to testing measured for 5 min by light-dark test relative to control. It counts as functional, organism-based. Set-up: dose 2 mg/kg.
The test system of assay [9] is Mus musculus. Kind of assay: Anxiolytic activity in Mus musculus Swiss albino (mouse) assessed as increase in time spent in light zone at 30 mg/kg, po administered 1 hr prior to testing measured for 5 min by light-dark test (reference value: 64 +/- 4.02 secs). The class given is functional.
Assay [10] concerns Mus musculus. Kind of assay: Anxiolytic activity in Mus musculus Swiss albino (mouse) assessed as increase in time spent in open arms at 10 mg/kg, po administered 1 hr prior to testing measured for 5 min by plus-maze test (reference value: 23 +/- 1.63 secs). The class given is functional.
Assay [11] deals with Mus musculus. Kind of assay: Anxiolytic activity in Mus musculus Swiss albino (mouse) assessed as increase in ambulation at 100 mg/kg, po administered 45 min prior to testing measured for 5 min by open-field test relative to control. The class given is functional, organism-based. Set-up: dose 100 mg/kg.
Assay [12] deals with Mus musculus. Kind of assay: Anxiolytic activity in Mus musculus Swiss albino (mouse) assessed as increase in time spent in open arms at 100 mg/kg, po administered 1 hr prior to testing measured for 5 min by plus-maze test (reference value: 23 +/- 1.63 secs). The class given is functional.
In assay [13] the test system is Mus musculus. Kind of assay: Anxiolytic activity in Mus musculus Swiss albino (mouse) assessed as increase in time spent in light zone at 100 mg/kg, po administered 1 hr prior to testing measured for 5 min by light-dark test (reference value: 64 +/- 4.02 secs). The class given is functional.
Assay [14] concerns Mus musculus. The assay is described as follows: Anxiolytic activity in Mus musculus Swiss albino (mouse) assessed as increase in ambulation at 200 to 400 mg/kg, po administered 45 min prior to testing measured for 5 min by open-field test relative to control. The class given is functional, organism-based.
Assay [15] deals with Mus musculus. Kind of assay: Anxiolytic activity in Mus musculus Swiss albino (mouse) assessed as time spent in neutral zone at 10 mg/kg, po administered 1 hr prior to testing measured for 5 min by plus-maze test (reference value: 70 +/- 5.63 secs). The class given is functional.
In assay [16] the test system is Mus musculus. Kind of assay: Anxiolytic activity in Mus musculus Swiss albino (mouse) assessed as time spent in neutral zone at 100 mg/kg, po administered 1 hr prior to testing measured for 5 min by plus-maze test (reference value: 70 +/- 5.63 secs). It counts as functional.

SMILES strings stand for the structures. Activity calls are given as the source filed them. No cut-off for these calls is given here.

Turning to `CN1C(=O)CN=C(c2ccccc2)c2cc(Cl)ccc21` [DIAZEPAM], the Time in assay [1] amounted to 166 s; in [2], 32 s; in [4] it was 171 s. The outcome in assay [3] was Active.

For `COc1ccc(C2=C(c3ccc(OC)c(OC)c3)C(=O)OC2=O)cc1OC`, the Time in assay [5] is 45 s; in assay [6] it was 95 s; in [7], 110 s; in assay [9], 120 s; in assay [10], 66 s; in assay [12], 151 s. Further, the Time in assay [13] is 145 s; in assay [15], 65 s; in assay [16], 29 s. The outcome in [8] and in assay [11] was Active. Also, the outcome in assay [14] was inactive.
